Measurements: ChEMBL document CHEMBL3822396 (J Med Chem, 2016)
The source made the active and inactive calls. The rule behind the calls is not given here.

Experiments:
[1] = Clearance in C57BL/6 mouse at 2 mg/kg, po or 1 mg/kg, iv by LC-MS/MS analysis; format: ADME, organism-based; settings: in vivo
[2] = Volume of distribution at steady state in C57BL/6 mouse at 2 mg/kg, po or 1 mg/kg, iv by LC-MS/MS analysis; format: ADME, organism-based; settings: in vivo, read-out: Vdss
Intestinal mucosa [3] = test: Inhibition of IL6 production in intestinal mucosa derived from Crohn's disease patient measured after 24 hrs by sandwich ELISA; format: functional, tissue-based; settings: Homo sapiens
Intestinal mucosa [4] = test: Inhibition of TNFalpha production in intestinal mucosa derived from ulcerative colitis patient measured after 24 hrs by sandwich ELISA; format: functional, tissue-based; settings: Homo sapiens
[5] = Cmax in Sprague-Dawley rat at 2 mg/kg, po administered through cassette dosing as by LC-MS/MS analysis; format: ADME, organism-based; parameters: dose 2 mg/kg, route oral; settings: in vivo
[6] = AUC in Sprague-Dawley rat at 2 mg/kg, po administered through cassette dosing by LC-MS/MS analysis; format: ADME, organism-based; settings: in vivo
[7] = target: Receptor-interacting serine/threonine-protein kinase 2 (Rattus norvegicus, UniProt G3V783); test: Inhibition of rat RIPK2 preincubated for 10 mins followed by addition of fluorescent-labeled 2-Methyl-5-(2-propen-l-yloxy)aniline measured after 10 mins by fluorescence polarization assay
[8] = target: T1, Nucleotide-binding oligomerization domain-containing protein 1 (Homo sapiens) (UniProt Q9Y239); test: Activation of NOD1 in human monocytes assessed as inhibition of ieDAP-stimulated IL8 production preincubated for 30 mins prior to ieDAP stimulation at 1 uM measured after 6 hrs by immunoassay; format: cell-based
T1 sequence (whole entry): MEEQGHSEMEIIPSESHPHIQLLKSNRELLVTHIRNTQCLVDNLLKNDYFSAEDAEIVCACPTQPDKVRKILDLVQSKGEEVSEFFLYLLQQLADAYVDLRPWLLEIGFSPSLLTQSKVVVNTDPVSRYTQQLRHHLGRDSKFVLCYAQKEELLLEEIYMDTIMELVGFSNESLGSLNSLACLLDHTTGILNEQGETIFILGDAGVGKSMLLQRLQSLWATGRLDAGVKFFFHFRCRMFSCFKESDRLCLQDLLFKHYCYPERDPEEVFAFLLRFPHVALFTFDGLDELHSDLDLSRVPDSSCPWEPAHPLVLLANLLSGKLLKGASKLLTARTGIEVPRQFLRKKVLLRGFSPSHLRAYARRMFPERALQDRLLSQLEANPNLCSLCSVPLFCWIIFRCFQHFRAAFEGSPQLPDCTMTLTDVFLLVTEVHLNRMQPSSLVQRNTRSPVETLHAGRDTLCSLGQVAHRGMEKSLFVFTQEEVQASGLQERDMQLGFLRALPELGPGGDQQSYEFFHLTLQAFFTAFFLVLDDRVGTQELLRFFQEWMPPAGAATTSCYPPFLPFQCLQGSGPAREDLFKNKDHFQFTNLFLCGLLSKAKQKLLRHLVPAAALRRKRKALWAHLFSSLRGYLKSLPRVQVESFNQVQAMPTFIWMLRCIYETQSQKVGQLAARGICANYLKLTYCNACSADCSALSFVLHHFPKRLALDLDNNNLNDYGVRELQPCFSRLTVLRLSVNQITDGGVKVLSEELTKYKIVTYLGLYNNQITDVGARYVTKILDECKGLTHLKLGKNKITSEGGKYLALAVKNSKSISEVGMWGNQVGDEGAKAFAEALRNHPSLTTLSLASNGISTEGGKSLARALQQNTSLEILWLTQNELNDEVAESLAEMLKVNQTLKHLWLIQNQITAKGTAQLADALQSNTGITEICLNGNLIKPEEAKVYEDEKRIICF

[9] = target: Nucleotide-binding oligomerization domain-containing protein 2 (Homo sapiens) (UniProt Q9HC29); test: Activation of NOD2 in human monocytes assessed as inhibition of MDP-stimulated TNF-alpha production preincubated for 30 mins prior to MDP stimulation measured after 6 hrs by immunoassay; format: cell-based
[10] = target: Toll-like receptor 4 (Homo sapiens) (UniProt O00206); test: Activation of TLR4 receptor in human monocytes assessed as inhibition of LPS-stimulated TNF-alpha production preincubated for 30 mins prior to LPS stimulation at 1 uM measured after 6 hrs by immunoassay; format: cell-based
[11] = target: T2, Interleukin-1 receptor type 1 (Homo sapiens) (UniProt P14778); test: Activation of IL-1R in human monocytes assessed as inhibition of IL-1beta-stimulated TNF-alpha production preincubated for 30 mins prior to IL-1beta stimulation at 1 uM measured after 6 hrs by immunoassay; format: cell-based
T2 sequence (whole entry): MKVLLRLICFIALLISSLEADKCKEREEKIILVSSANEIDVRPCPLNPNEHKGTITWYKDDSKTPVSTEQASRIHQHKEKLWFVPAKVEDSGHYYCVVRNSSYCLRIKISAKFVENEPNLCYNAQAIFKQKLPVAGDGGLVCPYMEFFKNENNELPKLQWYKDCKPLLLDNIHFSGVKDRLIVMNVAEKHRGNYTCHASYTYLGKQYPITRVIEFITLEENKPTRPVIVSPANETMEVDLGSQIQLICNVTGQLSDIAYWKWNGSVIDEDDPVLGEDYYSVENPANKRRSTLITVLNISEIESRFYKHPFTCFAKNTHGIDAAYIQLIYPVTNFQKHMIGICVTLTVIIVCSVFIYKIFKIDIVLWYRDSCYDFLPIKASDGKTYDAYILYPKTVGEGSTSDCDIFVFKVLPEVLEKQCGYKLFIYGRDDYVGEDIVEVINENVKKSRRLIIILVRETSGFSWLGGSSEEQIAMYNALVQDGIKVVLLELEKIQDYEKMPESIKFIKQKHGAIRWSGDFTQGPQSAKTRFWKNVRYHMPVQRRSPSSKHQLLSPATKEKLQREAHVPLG

Homo sapiens = organism: Homo sapiens; test: Activation of TFNR in human monocytes assessed as inhibition of TNF-alpha-stimulated IL8 production preincubated for 30 mins prior to TNF-alpha stimulation at 1 uM measured after 6 hrs by immunoassay; format: cell-based
[12] = Half life in Sprague-Dawley rat at 2 mg/kg, po and 1 mg/kg, iv by LC-MS/MS analysis; format: ADME, organism-based; settings: in vivo
[13] = Oral bioavailability in Sprague-Dawley rat at 2 mg/kg by LC-MS/MS analysis; format: ADME, organism-based; settings: in vivo
[14] = Cmax in C57BL/6 mouse at 2 mg/kg, po by LC-MS/MS analysis; format: ADME, organism-based; parameters: dose 2 mg/kg, route oral; settings: in vivo
[15] = AUC in C57BL/6 mouse at 2 mg/kg, po by LC-MS/MS analysis; format: ADME, organism-based; settings: in vivo
[16] = target: Vascular endothelial growth factor receptor 2 (Homo sapiens, UniProt P35968)
Sequence of Vascular endothelial growth factor receptor 2 (P35968 whole entry): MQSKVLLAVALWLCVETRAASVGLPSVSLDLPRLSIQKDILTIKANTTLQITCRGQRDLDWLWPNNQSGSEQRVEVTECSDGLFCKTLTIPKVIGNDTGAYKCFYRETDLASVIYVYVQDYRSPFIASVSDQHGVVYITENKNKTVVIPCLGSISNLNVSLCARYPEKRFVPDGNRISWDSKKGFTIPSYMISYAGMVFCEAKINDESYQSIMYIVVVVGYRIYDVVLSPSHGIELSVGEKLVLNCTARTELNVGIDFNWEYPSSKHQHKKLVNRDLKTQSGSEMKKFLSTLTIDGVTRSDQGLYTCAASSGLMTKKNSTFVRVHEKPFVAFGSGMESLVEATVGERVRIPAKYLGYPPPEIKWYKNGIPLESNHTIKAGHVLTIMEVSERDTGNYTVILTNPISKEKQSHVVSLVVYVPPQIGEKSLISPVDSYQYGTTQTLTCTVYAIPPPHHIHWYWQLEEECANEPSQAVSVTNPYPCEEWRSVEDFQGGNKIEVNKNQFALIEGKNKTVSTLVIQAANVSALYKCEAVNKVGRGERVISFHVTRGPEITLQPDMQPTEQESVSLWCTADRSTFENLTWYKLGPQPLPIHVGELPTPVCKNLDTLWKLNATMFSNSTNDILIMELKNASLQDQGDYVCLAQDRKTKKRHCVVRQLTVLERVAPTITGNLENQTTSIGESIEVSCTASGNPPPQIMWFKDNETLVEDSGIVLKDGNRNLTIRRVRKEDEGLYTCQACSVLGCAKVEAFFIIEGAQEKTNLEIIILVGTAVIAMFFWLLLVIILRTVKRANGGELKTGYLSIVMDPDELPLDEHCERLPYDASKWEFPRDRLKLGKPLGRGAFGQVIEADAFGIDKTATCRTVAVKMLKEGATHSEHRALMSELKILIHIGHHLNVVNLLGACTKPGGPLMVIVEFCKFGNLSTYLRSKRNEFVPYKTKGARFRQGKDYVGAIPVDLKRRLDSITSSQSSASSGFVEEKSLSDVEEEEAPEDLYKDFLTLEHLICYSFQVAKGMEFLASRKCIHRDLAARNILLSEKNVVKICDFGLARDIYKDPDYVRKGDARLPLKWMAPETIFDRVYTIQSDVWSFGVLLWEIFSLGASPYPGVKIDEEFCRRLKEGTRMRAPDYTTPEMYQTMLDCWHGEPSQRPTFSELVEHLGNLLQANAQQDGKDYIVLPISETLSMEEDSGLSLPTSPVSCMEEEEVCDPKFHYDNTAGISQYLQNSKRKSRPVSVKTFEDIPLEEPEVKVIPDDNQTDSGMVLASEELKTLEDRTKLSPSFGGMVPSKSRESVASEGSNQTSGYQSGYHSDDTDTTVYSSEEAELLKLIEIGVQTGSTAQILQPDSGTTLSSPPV

Sequence of Receptor-interacting serine/threonine-protein kinase 2 (G3V783 whole entry, the tested form may be a part): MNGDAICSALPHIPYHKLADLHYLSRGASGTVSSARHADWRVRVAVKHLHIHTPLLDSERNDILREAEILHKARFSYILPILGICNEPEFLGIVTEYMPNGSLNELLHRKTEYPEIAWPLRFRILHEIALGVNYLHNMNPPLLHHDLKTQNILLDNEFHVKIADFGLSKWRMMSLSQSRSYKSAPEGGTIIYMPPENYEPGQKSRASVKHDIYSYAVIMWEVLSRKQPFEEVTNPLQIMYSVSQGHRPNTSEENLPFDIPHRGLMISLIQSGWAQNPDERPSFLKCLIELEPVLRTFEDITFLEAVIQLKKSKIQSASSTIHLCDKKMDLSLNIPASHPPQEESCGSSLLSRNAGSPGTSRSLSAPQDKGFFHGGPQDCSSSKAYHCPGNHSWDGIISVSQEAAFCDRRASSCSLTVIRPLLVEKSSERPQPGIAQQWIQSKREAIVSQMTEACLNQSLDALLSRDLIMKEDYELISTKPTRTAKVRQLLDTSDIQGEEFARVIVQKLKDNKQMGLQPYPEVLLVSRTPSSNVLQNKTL
Sequence of Toll-like receptor 4 (Homo sapiens) (O00206 whole entry): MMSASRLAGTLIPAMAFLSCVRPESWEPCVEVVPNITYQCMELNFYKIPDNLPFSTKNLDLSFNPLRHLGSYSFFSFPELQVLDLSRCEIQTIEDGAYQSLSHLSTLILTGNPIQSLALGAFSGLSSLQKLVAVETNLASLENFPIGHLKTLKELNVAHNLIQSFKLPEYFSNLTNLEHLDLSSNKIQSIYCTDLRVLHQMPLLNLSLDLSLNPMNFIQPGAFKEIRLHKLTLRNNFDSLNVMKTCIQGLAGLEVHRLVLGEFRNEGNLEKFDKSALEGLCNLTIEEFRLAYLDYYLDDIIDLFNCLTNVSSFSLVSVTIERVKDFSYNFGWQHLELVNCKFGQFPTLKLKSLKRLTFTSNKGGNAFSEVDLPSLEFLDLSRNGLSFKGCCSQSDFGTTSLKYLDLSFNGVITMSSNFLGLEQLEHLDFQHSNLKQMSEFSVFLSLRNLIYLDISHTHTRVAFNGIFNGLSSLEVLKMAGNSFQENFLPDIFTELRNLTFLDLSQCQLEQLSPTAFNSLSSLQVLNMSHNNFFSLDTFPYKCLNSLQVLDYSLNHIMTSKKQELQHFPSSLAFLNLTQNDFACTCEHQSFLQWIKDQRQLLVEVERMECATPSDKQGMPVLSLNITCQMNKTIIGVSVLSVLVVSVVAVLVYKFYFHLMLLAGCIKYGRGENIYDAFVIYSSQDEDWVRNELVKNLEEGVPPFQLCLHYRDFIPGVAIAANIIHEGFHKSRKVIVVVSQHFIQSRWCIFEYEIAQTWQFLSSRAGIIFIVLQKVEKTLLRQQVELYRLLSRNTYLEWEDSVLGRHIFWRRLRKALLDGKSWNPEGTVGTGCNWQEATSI
Sequence of Nucleotide-binding oligomerization domain-containing protein 2 (Homo sapiens) (Q9HC29 whole entry, the tested form may be a part): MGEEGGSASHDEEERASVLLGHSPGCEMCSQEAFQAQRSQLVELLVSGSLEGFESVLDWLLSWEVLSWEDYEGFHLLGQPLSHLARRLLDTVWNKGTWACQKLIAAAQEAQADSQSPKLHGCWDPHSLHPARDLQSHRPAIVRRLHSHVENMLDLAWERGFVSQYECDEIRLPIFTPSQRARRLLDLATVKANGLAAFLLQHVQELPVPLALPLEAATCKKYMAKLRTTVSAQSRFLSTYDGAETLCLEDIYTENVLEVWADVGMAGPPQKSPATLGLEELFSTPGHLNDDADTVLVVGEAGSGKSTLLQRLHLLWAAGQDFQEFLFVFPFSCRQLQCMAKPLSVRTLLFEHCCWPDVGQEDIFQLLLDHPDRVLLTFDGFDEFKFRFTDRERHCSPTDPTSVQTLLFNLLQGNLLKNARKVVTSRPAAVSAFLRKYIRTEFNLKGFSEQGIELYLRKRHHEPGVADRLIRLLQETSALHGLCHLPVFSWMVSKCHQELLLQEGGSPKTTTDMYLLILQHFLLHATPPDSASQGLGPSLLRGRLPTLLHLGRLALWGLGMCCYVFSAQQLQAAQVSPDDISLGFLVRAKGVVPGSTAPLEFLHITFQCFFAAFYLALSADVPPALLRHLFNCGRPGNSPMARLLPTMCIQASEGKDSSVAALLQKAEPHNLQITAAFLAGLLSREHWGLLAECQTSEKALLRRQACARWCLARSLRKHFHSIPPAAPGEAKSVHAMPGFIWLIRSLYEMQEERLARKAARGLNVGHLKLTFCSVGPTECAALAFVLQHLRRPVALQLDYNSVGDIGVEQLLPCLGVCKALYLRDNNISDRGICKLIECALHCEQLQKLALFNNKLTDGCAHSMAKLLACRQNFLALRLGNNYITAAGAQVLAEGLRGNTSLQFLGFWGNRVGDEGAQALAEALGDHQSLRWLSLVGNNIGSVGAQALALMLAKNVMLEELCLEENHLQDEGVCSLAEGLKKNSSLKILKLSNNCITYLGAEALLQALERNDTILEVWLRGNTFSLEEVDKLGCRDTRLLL

## CC(C)(C)S(=O)(=O)c1ccc2nccc(Nc3n[nH]c4ccc(F)cc34)c2c1
[1]
  clearance: 13 mL/min/kg
[2]
  Vd: 1.2 L/kg
Intestinal mucosa [3]
  inhibition: Dose-dependent effect
Intestinal mucosa [4]
  inhibition: Dose-dependent effect
[5]
  Cmax: 260 ng/mL
[6]
  AUC: 980 ng·h/mL
[7]
  IC50: 2 nM
[8]
  inhibition: Active
[9]
  inhibition: Active
[10]
  inhibition: Active
[11]
  inhibition: Active
Homo sapiens
  inhibition: Active
[12]
  half-life: 3.1 h
[13]
  bioavailability: 39%
[14]
  Cmax: 340 ng/mL
[15]
  AUC: 860 ng·h/mL
[16]
  IC50: > 5000 nM
